According to US6902741B1, “Laminates containing an active substance transdermal system” (Jenapharm GmbH & Co. KG, priority 1999, dated 2005):

Type: physicochemical
Description: In this manner, by use of solid polymer inclusions, optimum active substance loadings can be attained in different polymers. The active substance concentrations in the polymer inclusions can be stabilized at a very high level so that only minimum amounts of additional solvent are needed. In cases where the solubility of the drug in the adhesive is the primary factor limiting skin permeation, the method of preparation described under B) must be chosen.
When such solid active substance inclusions are introduced into adhesive matrix solutions in dissolved form, the high solubility of the inclusion polymer in the matrix solvent used, for example ethyl acetate, ethanol etc, is important. Rapid dissolution of the amorphous active substance is attained to a level far above its saturation solubility in the pure solvent. For example, at room temperature ethyl acetate dissolves only about 3 wt. % of a gestagenic steroid. By use of a corresponding solid active substance solution, the solubility of the steroid in the solution of ethyl acetate and nonadhesive polymer was increased to nearly 15 wt. % and kept stable. It should be kept in mind in this respect that, based on the volatile solvent ethyl acetate which is to be driven off from the adhesive matrix that is to be dried, the solubility was increased to more than 30 wt. %. […]

solubility in ethyl acetate: 3%
Compound: C#C[C@]1(O)C=C[C@H]2[C@@H]3CCC4=CC(=O)CC[C@@H]4[C@H]3CC[C@@]21CC [gestodene]
